# Source: patent US20080221096A1, “Pyrido[3' ,2':4,5]Furo[3,2-d]Pyrimidine Derivatives” (priority 2005, published 2008)
# Tested on: PDE4
# Assay: PDE4 Assay Procedure ([3H]-cAMP SPA)
# Format: biochemical
# Conditions: 15 nM [3H]-cAMP, 1 hour at room temperature, SPA beads
# Protocol: Compounds to be tested were resuspended in DMSO at a stock concentration of 1 mM. […] These dilutions were done in 96-well plates. In some cases, plates containing diluted compounds were frozen before being assayed. In these cases, the plates were thawed at room temperature and stirred for 15 minutes.
# Ten microliters of the diluted compounds were poured into a “low binding” assay plate. […] The reaction was initiated by adding ten microliters of a solution containing PDE4. The plate was then incubated under stirring for 1 hour at room temperature. After incubation the reaction was stopped with 50 microlitres of SPA beads, and the reaction was allowed to incubate for another 20 minutes at room temperature before measuring radioactivity using standard instrumentation.
# The reaction mixture was prepared by adding 90 ml of H2O to 10 ml of 10× assay buffer (500 mM Tris pH 7.5, 83 mM MgCl2, 17 mM EGTA), and 40 microlitres 1 μCi/μL [3H]-cAMP. SPA beads solution was prepared by adding 500 mg to 28 ml H2O for a final concentration of 20 mg/ml beads and 18 mM zinc sulphate.
row,Structure (SMILES),IC50
1,"CCNc1nc2oc3c(NCCN4CCOCC4)ncnc3c2c2c1CCC(C)(C)C2 [Example 31, N^5-Ethyl-2,2-dimethyl-N^8-(2-morpholin-4-ylethyl)-1,2,3,4-tetrahydropyrimido[4′,5′:4,5]furo[2,3-c]isoquinoline-5,8-diamine]",2 nM
2,"CCNc1nc2oc3c(NCCCN4CCCC4=O)ncnc3c2c2c1CCC(C)(C)C2 [Example 35, 1-(3-{[5-(Ethylamino)-2,2-dimethyl-1,2,3,4-tetrahydropyrimido[4′,5′:4,5]furo[2,3-c]isoquinolin-8-yl]amino}propyl)pyrrolidin-2-one]",1.6 nM
3,"CC1(C)Cc2c(c(N3CCOCC3)nc3oc4c(N(CCN5CCOCC5)Cc5cccnc5)ncnc4c23)CO1 [Example 14, 2,2-Dimethyl-5-morpholin-4-yl-N-(2-morpholin-4-ylethyl)-N-(pyridin-3-ylmethyl)-1,4-dihydro-2H-pyrano[4″,3″:4′,5′]pyrido[3′,2′:4,5]furo[3,2-d]pyrimidin-8-amine]",10 nM
4,"CC1(C)CCc2c(N3CCOCC3)nc3oc4c(N(CCO)CCN5CCOCC5)ncnc4c3c2C1 [Example 20, 2-[(2,2-Dimethyl-5-morpholin-4-yl-1,2,3,4-tetrahydropyrimido[4′,5′:4,5]furo[2,3-c]isoquinolin-8-yl)(2-morpholin-4-ylethyl)amino]ethanol]",0.8 nM
5,"CC1(C)CCc2c(N3CCOCC3)nc3oc4c(NCCN5CCOCC5)ncnc4c3c2C1 [Example 23, 2,2-Dimethyl-5-morpholin-4-yl-N-(2-morpholin-4-ylethyl)-1,2,3,4-tetrahydropyrimido[4′,5′:4,5]furo[2,3-c]isoquinolin-8-amine]",8.9 nM
6,"CC1(C)CCc2c(NC3CCC3)nc3oc4c(NCCN5CCOCC5)ncnc4c3c2C1 [Example 46, N^5-Cyclobutyl-2,2-dimethyl-N^8-(2-morpholin-4-ylethyl)-1,2,3,4-tetrahydropyrimido [4′,5′:4,5]furo[2,3-c]isoquinoline-5,8-diamine]",0.7 nM
